# Test results: BindingDB's records for doi:10.7270/Q2251GJ9 (The Scripps Research Institute Molecular Screening Center, 2007)
# Structures can show the parent of a compound that is named as a salt.
# Target: Sphingosine 1-phosphate receptor 1 (Homo sapiens, UniProt P21453)
# Experiment: direct activation of human S1P1 – cell-based, agonist mode, 60K MLSMR set, dose response (AID 468)
# [1] = inactive by the depositor's call
# Sequence of Sphingosine 1-phosphate receptor 1 (P21453 whole entry): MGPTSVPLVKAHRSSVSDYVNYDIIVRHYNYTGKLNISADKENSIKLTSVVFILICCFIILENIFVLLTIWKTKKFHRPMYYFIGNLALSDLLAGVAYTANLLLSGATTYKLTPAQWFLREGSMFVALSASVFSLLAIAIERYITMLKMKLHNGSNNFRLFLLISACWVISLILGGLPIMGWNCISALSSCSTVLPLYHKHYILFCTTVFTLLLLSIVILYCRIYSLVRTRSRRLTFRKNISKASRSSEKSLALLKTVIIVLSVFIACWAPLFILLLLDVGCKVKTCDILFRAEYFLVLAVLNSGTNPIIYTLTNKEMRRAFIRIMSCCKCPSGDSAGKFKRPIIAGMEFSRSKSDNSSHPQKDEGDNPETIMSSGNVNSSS
Compound,EC50 [µM],EC50 [1] [µM]
"CC(C)(C)C1CCC2(CC1)C(C#N)=C(SCC(=O)Nc1ccccc1)NC(=O)C2C#N (stereo not given) [2-[(9-tert-butyl-1,5-dicyano-2-oxidanylidene-3-azaspiro[5.5]undec-4-en-4-yl)sulfanyl]-N-phenyl-ethanamide]",4.92,–
"CCN(CC)C(=O)CS/C(=N/C#N)Nc1ccccc1F [2-[[N-cyano-N'-(2-fluorophenyl)amidino]thio]-N,N-diethyl-acetamide]",> 95,–
"Oc1ccc(C2NCc3ccccc3-n3cccc32)cc1Cl (stereo not given) [2-chloranyl-4-(5,6-dihydro-4H-pyrrolo[1,2-a][1,4]benzodiazepin-4-yl)phenol;hydrochloride]",3.04,–
"CCOC(=O)c1ccc2c(c1)C(=O)N(C1CCCCC1)C2=O [2-cyclohexyl-1,3-diketo-isoindoline-5-carboxylic acid ethyl ester]",> 95,–
"CCOc1nc(C)ccc1-c1noc(-c2ccncc2)n1 [2-ethoxy-6-methyl-3-[5-(4-pyridinyl)-1,2,4-oxadiazol-3-yl]pyridine]",5.42,–
"COc1cc(C#CC#CCN2CCCCC2)ccc1O [2-methoxy-4-(5-piperidin-1-ylpenta-1,3-diynyl)phenol;hydrochloride]",8.34,–
COCC(=O)Nc1cccc(C(F)(F)F)c1 [2-methoxy-N-[3-(trifluoromethyl)phenyl]acetamide],> 95,–
"Cc1ccc(-n2c(C)cc(C(=O)COC(=O)c3c(C)noc3C)c2C)cc1 [3,5-dimethyl-4-isoxazolecarboxylic acid [2-[2,5-dimethyl-1-(4-methylphenyl)-3-pyrrolyl]-2-oxoethyl] ester]",8.31,–
N#CCCS(=O)(=O)c1nnnn1-c1ccccc1 [3-(1-phenyltetrazol-5-yl)sulfonylpropanenitrile],3.66,–
"O=c1c(-c2ccc3c(c2)OCCO3)c(C(F)(F)F)oc2cc(O)cc(O)c12 [3-(2,3-dihydro-1,4-benzodioxin-6-yl)-5,7-bis(oxidanyl)-2-(trifluoromethyl)chromen-4-one]",4.13,–
"CCOC(=O)c1oc2cc(O)c(CC)cc2c(=O)c1-c1ccc2c(c1)OCCO2 [3-(2,3-dihydro-1,4-benzodioxin-6-yl)-6-ethyl-7-hydroxy-4-keto-chromene-2-carboxylic acid ethyl ester]",> 10,–
"CCOc1ccc(-c2noc(-c3ccncc3)n2)cc1OCC [3-(3,4-diethoxyphenyl)-5-(4-pyridyl)-1,2,4-oxadiazole]",0.613,–
"Cc1oc2cc(O)cc(O)c2c(=O)c1-c1ccc2c(c1)OCCCO2 [3-(3,4-dihydro-2H-1,5-benzodioxepin-7-yl)-2-methyl-5,7-bis(oxidanyl)chromen-4-one]",4.54,–
"COc1ccc(-c2noc(-c3cc(C)cc(C)c3)n2)cc1OC [3-(3,4-dimethoxyphenyl)-5-(3,5-dimethylphenyl)-1,2,4-oxadiazole]",1.23,–
"CCOc1cc(-c2noc(-c3cccnc3)n2)ccc1OC [3-(3-ethoxy-4-methoxy-phenyl)-5-(3-pyridyl)-1,2,4-oxadiazole]",–,18.7
"COc1ccccc1-c1nc(-c2ccc(Br)cc2)no1 [3-(4-bromophenyl)-5-(2-methoxyphenyl)-1,2,4-oxadiazole]",–,12

Compound,EC50 [µM],EC50 [1] [µM]
"CCOc1ccc(-c2noc(-c3cccnc3)n2)cc1OC [3-(4-ethoxy-3-methoxy-phenyl)-5-(3-pyridyl)-1,2,4-oxadiazole]",1.2,–
CC(C)Oc1cc(O)c2c(=O)c(-c3ccc(O)cc3)coc2c1 [3-(4-hydroxyphenyl)-5-oxidanyl-7-propan-2-yloxy-chromen-4-one],> 1,–
"COc1ccc(Cc2nc(-c3ccc(-n4cccc4)cc3)no2)cc1OC [3-(4-pyrrol-1-ylphenyl)-5-veratryl-1,2,4-oxadiazole]",–,13.7
"COc1ccc(-c2nc(-c3ccc(Br)o3)no2)cc1OC [3-(5-bromanylfuran-2-yl)-5-(3,4-dimethoxyphenyl)-1,2,4-oxadiazole]",7.98,–
"CN(C)CC(C(=O)c1ccccc1)c1ccccc1 (stereo not given) [3-(dimethylamino)-1,2-diphenyl-1-propanone;hydrochloride]",9.7,–
"CCSc1nc(N2CCOCC2)c2c(c1C#N)CCCC2 [3-(ethylthio)-1-(4-morpholinyl)-5,6,7,8-tetrahydroisoquinoline-4-carbonitrile]",–,46.8
"CCOc1ccc(-c2nc(-c3ccccc3C)no2)cc1 [3-(o-tolyl)-5-p-phenetyl-1,2,4-oxadiazole]",1.87,–
"Nc1c(C(=O)NC2CCCC2)sc2nc(-c3cccs3)ccc12 [3-Amino-6-thiophen-2-yl-thieno[2,3-b]pyridine-2-carboxylic acid cyclopentylamide]",–,14.4
"CC/N=c1\sc(C(=O)NCCc2ccccc2)cc(=O)n1CC [3-Ethyl-2-[(Z)-ethylimino]-4-oxo-3,4-dihydro-2H-[1,3]thiazine-6-carboxylic acid phenethyl-amide]",–,22.5
"Cc1cc(C(=O)CC#N)c(C)n1-c1ccc(OC(F)F)cc1 [3-[1-[4-(difluoromethoxy)phenyl]-2,5-dimethyl-3-pyrrolyl]-3-oxopropanenitrile]",> 10,–
"CCN(CC)S(=O)(=O)c1cccc(S(=O)(=O)c2cccc(S(=O)(=O)N(CC)CC)c2)c1 [3-[3-(diethylsulfamoyl)phenyl]sulfonyl-N,N-diethyl-benzenesulfonamide]",–,19.3
"COc1ccc(/N=c2\scc(-c3ccc(S(=O)(=O)N4CCOCC4)cc3)n2CCCO)cc1 [3-[(2Z)-2-[(4-methoxyphenyl)imino]-4-[4-(morpholin-4-ylsulfonyl)phenyl]-1,3-thiazol-3(2H)-yl]propan-1-ol]",13.2,–
"C=CCn1c(SCC(=O)c2cccs2)nc2sc(CC)cc2c1=O [3-allyl-6-ethyl-2-[[2-keto-2-(2-thienyl)ethyl]thio]thieno[2,3-d]pyrimidin-4-one]",–,39.9
CCOc1ccc(C(=O)Nc2ccc(Cl)cn2)cc1Cl [3-chloranyl-N-(5-chloranylpyridin-2-yl)-4-ethoxy-benzamide],5.51,–
Cc1ccc(O)c(NC(=O)CCC2CCCCC2)c1 [3-cyclohexyl-N-(2-hydroxy-5-methyl-phenyl)propionamide],> 95,–
"Cc1ccsc1C(=O)OCC(=O)c1cc(C)n(CC2CCCO2)c1C (stereo not given) [3-methyl-2-thiophenecarboxylic acid [2-[2,5-dimethyl-1-(2-oxolanylmethyl)-3-pyrrolyl]-2-oxoethyl] ester]",7.53,–

# The remaining lines, values ahead:
EC50 [µM],EC50 [1] [µM],Compound
61.2,–,"COCCn1c(C)cc(C(=O)CSc2nc3ccccc3c(=O)[nH]2)c1C [2-[[2-[1-(2-methoxyethyl)-2,5-dimethyl-3-pyrrolyl]-2-oxoethyl]thio]-1H-quinazolin-4-one]"
1.87,–,"COCCn1c(C)cc(C(=O)CSc2nnc(-c3cccnc3)n2-c2ccccc2F)c1C [2-[[4-(2-fluorophenyl)-5-(3-pyridinyl)-1,2,4-triazol-3-yl]thio]-1-[1-(2-methoxyethyl)-2,5-dimethyl-3-pyrrolyl]ethanone]"
10,–,"Cc1ccccc1-n1c(SCC(=O)c2cc(C)n(C)c2C)nnc1-c1ccncc1 [2-[[4-(2-methylphenyl)-5-pyridin-4-yl-1,2,4-triazol-3-yl]sulfanyl]-1-(1,2,5-trimethylpyrrol-3-yl)ethanone]"
–,17.3,"O=C(CSc1nnc(-c2ccc(Cl)cc2)n1Cc1ccco1)c1cccs1 [2-[[5-(4-chlorophenyl)-4-(2-furanylmethyl)-1,2,4-triazol-3-yl]thio]-1-thiophen-2-ylethanone]"
> 95,–,"O=C(CSc1nnc(Cc2csc(Nc3cccc(Cl)c3)n2)o1)N1CCc2ccccc21 [2-[[5-[[2-(3-chloroanilino)-1,3-thiazol-4-yl]methyl]-1,3,4-oxadiazol-2-yl]sulfanyl]-1-(2,3-dihydroindol-1-yl)ethanone]"
5.51,–,"Cc1ccc(-c2nc(CSCC(=O)N3CCN(c4ccccn4)CC3)c(C)o2)cc1 [2-[[5-methyl-2-(4-methylphenyl)-1,3-oxazol-4-yl]methylsulfanyl]-1-(4-pyridin-2-ylpiperazin-1-yl)ethanone]"
7.6,–,"Clc1ccc(OCc2nnc(SCc3nc4ccccc4[nH]3)n2Cc2ccco2)cc1 [2-[[[5-[(4-chlorophenoxy)methyl]-4-(2-furanylmethyl)-1,2,4-triazol-3-yl]thio]methyl]-1H-benzimidazole]"
–,16.4,"Nn1c(Nc2ccccc2)nc2sc3c(c2c1=O)CCC3 [2-amino-3-anilino-7,8-dihydro-6H-cyclopenta[2,3]thieno[2,4-b]pyrimidin-1-one]"
–,22.2,"Cc1nc2sc(-c3ccccc3)cc2c(=O)n1-n1cccc1 [2-methyl-6-phenyl-3-(1-pyrrolyl)-4-thieno[2,3-d]pyrimidinone]"
–,50.5,"COc1ccc(-c2cn3c(C)c(C(=O)N4CCCc5ccccc54)sc3n2)cc1 [3,4-dihydro-2H-quinolin-1-yl-[6-(4-methoxyphenyl)-3-methyl-2-imidazo[2,1-b]thiazolyl]methanone]"
–,26.2,"Cc1ccc(-c2nc(COC(=O)c3c(C)noc3C)cs2)cc1 [3,5-dimethyl-4-isoxazolecarboxylic acid [2-(4-methylphenyl)-4-thiazolyl]methyl ester]"
2.97,–,"Cc1cc(-c2nnc(-c3ccccc3)c(-c3ccccc3)n2)c(C)o1 [3-(2,5-dimethyl-3-furanyl)-5,6-diphenyl-1,2,4-triazine]"
–,18.1,Cc1onc(-c2ccccc2Cl)c1C(=O)Oc1cc(N)n(S(=O)(=O)c2ccc(F)cc2)n1 [3-(2-chlorophenyl)-5-methyl-4-isoxazolecarboxylic acid [5-amino-1-(4-fluorophenyl)sulfonyl-3-pyrazolyl] ester]
2.47,–,"CN(C)c1ccnc2sc3c(=O)n(Cc4ccccc4)cnc3c12 [3-Benzyl-9-dimethylamino-3H-pyrido[3',2':4,5]thieno[3,2-d]pyrimidin-4-one]"
7.44,–,Cc1cc(NC(=O)c2oc3ccccc3c2C)ccc1-n1cnnn1 [3-Methyl-benzofuran-2-carboxylic acid (3-methyl-4-tetrazol-1-yl-phenyl)-amide]
4.94,–,"O=C(CCc1nc(-c2ccccc2F)no1)Nc1ccc(Oc2ccccc2)cc1 [3-[3-(2-fluorophenyl)-1,2,4-oxadiazol-5-yl]-N-(4-phenoxyphenyl)propanamide]"
–,14,CCn1c(NC(=O)c2cccc(Cn3cc(Cl)cn3)c2)nc2ccccc21 [3-[(4-chloranylpyrazol-1-yl)methyl]-N-(1-ethylbenzimidazol-2-yl)benzamide]
4.08,–,CCOc1ccc(C(=O)Nc2c(C(N)=O)oc3ccccc23)cc1 [3-[(4-ethoxybenzoyl)amino]-1-benzofuran-2-carboxamide]
